For data set [1], the system named is bFGF-sensitive (M059K, RT-112, SW780) and bFGF-insensitive (SKOV3, AGS and HCT116) cell lines. Description: SIA, collagen I invasion in panel of human cancer cell models. It is filed as cell-based. Conditions: 10 µM. The protocol:
1000—2500 cells/well in 100 μl were seeded in 96 well Corning® Spheroid microplate (CLS4520, Sigma-Aldrich) or in cell-repellent 96 well microplate (650,790, Greiner Bio-one). SIA and analysis was performed as described before. In brief: After spheroid formation (24 – 72 h after seeding), 70 µl medium was removed and replaced with the collagen mixture (2.5 mg/ml Pure Col Collagen I (Advanced Biomatrix)), DMEM 1x (from 10 × stock, Sigma, D2429) and 0.4% Sodium bicarbonate (Sigma, S8761)), resulting in a final collagen concentration of 1.75 mg/ml. Embedded spheroids were stimulated with bFGF (100 ng/ml if not otherwise stated), HGF (30 ng /ml) or EGF (20 ng/ml) and distance of invaded cells quantified 24 – 48 h after embedding. Compounds and BGJ398 were added in Dimethylsulfoxid (DMSO) and corresponding DMSO concentrations were used in control samples.

Another data set relates to human cancer cell lines. The data set can be described thus: CellTiter-Glo viability (2D culture or 3D spheroids), cell line panel. Conditions: for reduction of viability: DAOY, AGS and HCT116 cells, between 2.7 and 20 µM, 48 h. It is filed as cell-based. As for the experimental part:
Cell viability was determined using CellTiter-Glo® 2D or 3D cell viability assays (#G9242, #G9682, Promega). 500 cells/25 µl were seeded in flat bottom (#781,091, Greiner bio-one) or U-low adhesion (#4516, Corning) 384-well plate, 24 h prior to treatment. Increasing concentrations of compounds are deposited on cells using a HP Digital Drug Dispenser with DMSO total volume normalization. After 48 h, the CellTiter-Glo® 2D or 3D reagent was added (volume/volume) following manufacturer’s instructions. Plates were incubated at RT (room temperature) under agitation for 30 min and luminescence representing the number of viable cells was quantified with a Cytation 3 imaging reader (BioTek®). Experiments were performed independently three times with three technical replicas each.
For orientation: ATP-based viability assays read luminescence as a measure of living cells.

The subject of data set [2] is FRS2 (Y436) phosphorylation. Description: Immunoblotting, FRS2 phosphorylation. The data set is classed as cell-based, human. Conditions: RT-112 cells. The protocol: (§1) Cells were serum starved o.n. and 10 µM compound or 1 µM (BGJ398) were added 3 h before stimulation with 100 ng/ml bFGF for 15 min. Cells were lysed in RIPA buffer containing protease inhibitor cocktail and lysates resolved by SDS-PAGE. Membranes were probed with primary antibodies against phospho-FRS2, FRS2, phospho-ERK1/2, ERK1/2, pAKT, AKT and tubulin. Integrated density of immuno-reactive bands was quantified using Adobe Photoshop CS3. Integrated densities of phospho bands relative to non-phospho bands of same protein were calculated and plotted as fold-change relative to untreated control conditions. Compounds and BGJ398 were added in DMSO and corresponding DMSO concentrations were used in control samples.
For orientation: A western blot detects proteins with antibodies after separation by electrophoresis.

Another data set relates to ERK (pT202/Y204). Description: Immunoblotting, ERK phosphorylation. The data set is classed as cell-based, human. Conditions: DAOY, SW780, M059K, SKOV3, AGS, DMS114 and RT-112 cells; 10 µM compound or 1 µM BGJ398. The protocol:
as §1

A short description of data set [3]: Cell viability (cytotoxicity, MTT) using HepG2. It is filed as cell-based, human. As to conditions: human, HepG2 cells, 72 h, summary sheet, read-out: MTT (AC50) Conc at which 50% of maximum efficacy is reached. The method, boiled down:
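Compounds were tested at 8 concentrations in triplicate on HepG2 cells plated 24 h beforehand, with 72 h exposure in 1% DMSO medium. MTT was loaded 1 h before the end, solubilized in DMSO and read at 570 nm. Minimum effective concentration is the lowest concentration exceeding the significance level, given dose-response or two consecutive points above it.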

Data set [4] in a line: In vivo bioavailability / PK after 1 mg/kg IV or 10 mg/kg PO. Details: species or system Male ICR mice. As for the experimental part:
In vivo bioavailability studies were performed by Pharmacology Discovery Services Taiwan, Ltd., (New Taipei City, Taiwan). Male ICR mice weighing 20—30 g were provided by BioLasco Taiwan (under Charles River Laboratories Licensee). Animals were acclimated for 3 days prior to use and were confirmed with good health. All animals were maintained in a hygienic environment with controlled temperature (20—24 °C), humidity (30%—70%) and 12 h light/dark cycles. Free access to sterilized standard lab diet [MFG (Oriental Yeast Co., Ltd., Japan)] and autoclaved tap water. A pharmacokinetic (PK) study was performed in male ICR mice following intravenous (IV) and oral (PO) administration of compound 7 and E12 and IV administration of the test compound 3.14. The three test compounds (7, E12 and 3.14) were formulated in 1% dimethyl sulfoxide (DMSO)/10% Solutol® HS-15/ phosphate buffered saline (PBS) at 0.2 mg/mL and 1 mg/mL for IV and PO administration, respectively. The dosing volumes were 5 ml/kg for IV and 10 ml/kg for PO. The dose was 1 mg/kg for IV and 10 mg/kg for PO routes.

[5] abbreviates: male, ICR, mouse, plasma, 1 mg/kg, IV.
Where [6] appears, read: male, ICR, mouse, plasma, 10 mg/kg, PO.

The source of these data is publication PMC10060354, “Discovery of a small molecule ligand of FRS2 that inhibits invasion and tumor growth” (Cellular Oncology, 2022).

As usually defined, the AC50 is the midpoint of the concentration-response curve, whichever way the signal moves. One may read the IC50 as the concentration that inhibits the measured activity by half. One may read the AUC(0-inf) as total exposure, with the tail of the curve extrapolated. A high value points to more exposure. What is called MRT is a mean duration of stay, worked out from the concentration-time curve. As usually defined, the half-life is the time in which the quantity being followed falls by half. In general, Tmax refers to the time from dosing to the highest level. Broadly, the bioavailability is dose-corrected exposure relative to a reference, in per cent.

SMILES strings stand for the structures. Read-outs that look alike come from different tables or passages of the source.

For `N#Cc1c(Cl)cc(O)c2c1C1C=CCC1C(c1ccc(Cl)cc1)N2` (centres unmarked) [Compound 14], the “collagen I invasion across cancer cell lines (result in words)” value in data set [1] was “inhibited collagen I invasion in both bFGF-sensitive and bFGF-insensitive cell lines”. For the same molecule, the reduction of viability entry in the data set on human cancer cell lines is given as “more than 50%”. In data set [2], the “basal and bFGF-induced phosphorylation of FRS2Y436 (result in words)” value is “reduced basal and bFGF-induced phosphorylation”. Besides, the “basal and bFGF-induced phosphorylation of ERK (result in words)” value in the data set on ERK (pT202/Y204) is “inhibited basal and bFGF-induced phosphorylation”. The AC50 at 72 h in data set [3] amounted to 5.24 µM.

As for `O=[N+]([O-])c1c(Cl)cc(O)c2c1C1C=CCC1C(c1ccc(Cl)cc1)N2` (centres unmarked) [Compound 7], in data set [1], the “collagen I invasion across cancer cell lines (result in words)” value is “inhibited collagen I invasion in both bFGF-sensitive and bFGF-insensitive cell lines”. In addition, in the data set with human cancer cell lines, the reduction of viability result is on record as “more than 50%”. The IC50 in the data set on human cancer cell lines (Homo sapiens, read-out: IC50 of cell viability, all lines) is less than 20 µM. Also, the “basal and bFGF-induced phosphorylation of FRS2Y436 (result in words)” value in data set [2] is “reduced basal and bFGF-induced phosphorylation”. For the same molecule, the “basal and bFGF-induced phosphorylation of ERK (result in words)” value with ERK (pT202/Y204) was “inhibited basal and bFGF-induced phosphorylation”. Also, the AC50 at 72 h in data set [3] turned out to be 7.02 µM. Further, the “AUC Extr (%)” value in data set [4] (1 mg/kg, IV) is 1.2%. Besides, in data set [4] (10 mg/kg, PO), the “AUC Extr (%)” value was 18.1%, the “AUC/D” value came out at 407 kg·ng·h/mL/mg and the “AUClast (H*ng/ml)” value worked out at 3333 H*ng/ml. The AUC(0-t) in data set [4] (male, ICR, mouse, plasma, iv, 1 mg/kg, IV, read-out: AUClast) is 393 ng·h/mL. Besides, in data set [4] (male, ICR, mouse, plasma, iv, 1 mg/kg, mice, 1 mg/kg IV, read-out: AUClast after IV administration), the AUC(0-t) turned out to be 398 ng·h/mL. In addition, in data set [4] (male, ICR, mouse, plasma, po, 10 mg/kg, mice, 10 mg/kg PO, read-out: AUClast after PO administration), the AUC(0-t) came out at 3330 ng·h/mL. Moreover, in data set [4] (setting [5]), the AUC(0-inf) was 398 ng·h/mL, the MRT came out at 0.29 h, the clearance was 42 mL/min/kg and the half-life is 1.14 h. In addition, the Vd in data set [4] (male, ICR, mouse, plasma, 1 mg/kg, IV, read-out: Vss) is 0.7 L/kg. For the same molecule, in data set [4] (setting [6]), the AUC(0-inf) is 4070 ng·h/mL, the MRT was 4.71 h, the Tmax came to 0.5 h and the bioavailability was found to be 85%. In data set [4] (setting [6]), the half-life was 3.83 h. For the same molecule, the C0 in data set [4] (male, ICR, mouse, mice, 1 mg/kg IV, plasma, read-out: C0 after IV administration) came to 2870 ng/mL. The Cmax in data set [4] (male, ICR, mouse, mice, 10 mg/kg PO, plasma, read-out: Cmax (oral bioavailability) after PO administration) came to 1400 ng/mL. Also, the “CL1/2 after IV administration” value in data set [4] (mice, 1 mg/kg IV) was found to be 1.14 h. For the same molecule, in data set [4] (mice, 10 mg/kg PO), the “CL1/2 after PO administration” value came out at 3.83 h.
